PubChem BioAssay (NCI)
Several values for one entry are separate records, joined by “and”; a condition that tells them apart may be missing. Equal entries are not always repeated.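 Exposure lasted 48 hours, with cells grown in 96-well plates and compounds tested at five concentrations. GI50 is the concentration that inhibits growth by half. TGI denotes the concentration required for complete inhibition of growth.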

Key:
Experiment in all cases: NCI-60 cell line screen, 48 h
[1] = tested on: DU-145 prostate
[2] = tested on: HCC-2998 colon
[3] = tested on: NCI/ADR-RES ovarian
[4] = tested on: OVCAR-3 ovarian
[5] = tested on: SK-MEL-28 melanoma
[6] = tested on: HT29 colon
[7] = tested on: RPMI-8226 leukemia
[8] = tested on: SR leukemia
[9] = tested on: HS 578T breast
[10] = tested on: NCI-H522 lung

SMILES | GI50 [1] | TGI [1] | GI50 [2] | TGI [2] | GI50 [3] | TGI [3] | GI50 [4] | TGI [4] | GI50 [5] | TGI [5] | GI50 [6] | TGI [6] | GI50 [7] | TGI [7] | GI50 [8] | TGI [8] | TGI [9] | GI50 [9] | GI50 [10] | TGI [10]
CCn1cc(C(=O)N/N=C/c2ccccc2)c(=O)c2cc(F)c(N3CCNC(C)C3)c(F)c21 (configuration not stated) | 1.88 µM | 3.3 µM | 1.8 µM | 3.32 µM | 1.76 µM | 3.46 µM | 1.82 µM | 3.3 µM | 1.78 µM | 3.19 µM | – | – | – | – | – | – | – | – | – | –
N.N.N.N.N.[Cl-].[Co+3].c1ccc(-c2nn[n-]n2)cc1 | – | – | > 100 µM | > 100 µM | – | – | > 100 µM | > 100 µM | > 100 µM | > 100 µM | > 100 µM | > 100 µM | > 100 µM | > 100 µM | > 100 µM | > 100 µM | – | – | – | –
c1ccc(CN2CCC3(CC2)SSC2(CCN(Cc4ccccc4)CC2)S3)cc1 | – | > 100 µM | – | 93.6 µM | – | > 100 µM | – | > 100 µM | – | > 100 µM | – | 43.5 µM | – | 98.4 µM | – | > 100 µM | > 100 µM | – | – | –
O=C(Cn1c(=O)c(-c2ccccc2)nc2ccccc21)Nc1ccc(F)cc1 | 43.4 µM | > 100 µM | > 100 µM | > 100 µM | > 100 µM | > 100 µM | > 100 µM | > 100 µM | > 100 µM | > 100 µM | > 100 µM | > 100 µM | 37.4 µM | > 100 µM | – | – | 88.8 µM | 29.9 µM | 65.1 µM | > 100 µM
CCOC(=O)c1c2c(n(Cc3ccc(Cl)cc3Cl)c1C)-c1nc[nH]c1C(=O)C2=O | 11.8 µM | 24.1 µM | – | – | – | – | 2.86 µM | 10.6 µM | 15.6 µM | 28.9 µM | 15.5 µM | 28.8 µM | 2.5 µM | 6.03 µM | 1.21 µM | 2.79 µM | 74.5 µM | 23.1 µM | 10.3 µM | 23.1 µM
COc1cccc2c1C(=O)c1c(O)c3c(c(O)c1C2=O)CC(O)(C(O)CO)CC3OC1CC(N2CCOCC2)C(O)C(C)O1 (configuration not stated) | – | 3.31 µM | – | 0.00372 µM and 0.0304 µM | – | 0.31 µM | 0.0323 µM | – | 0.0221 µM | 0.0168 µM and 0.0592 µM | – | – | 0.0191 µM | 0.147 µM and 0.486 µM | – | – | 0.214 µM | – | 0.0264 µM | 0.0172 µM and 0.0956 µM
C1COCCN1.C1COCCN1.NC1CCCCC1N.[Cl-].[Pt+2] (configuration not stated) | – | – | > 100 µM | > 100 µM | – | – | > 100 µM | > 100 µM | > 100 µM | > 100 µM | > 100 µM | > 100 µM | > 100 µM | > 100 µM | – | – | – | – | 46.5 µM | > 100 µM
COC1OC(CBr)C(OC(=O)c2ccccc2)C(O)C1Br (configuration not stated) | – | – | – | > 100 µM | – | – | – | > 100 µM | – | > 100 µM | – | > 100 µM | – | > 100 µM | – | > 100 µM | – | – | – | > 100 µM
O=C(O)C1OC1(c1cccc(Cl)c1)c1ccccc1Cl (configuration not stated) | – | 77.5 µM | – | > 100 µM | – | 47.3 µM | – | 46.1 µM | – | 61.3 µM | – | 64.7 µM | – | 94.8 µM | – | – | 52.4 µM | – | – | 65 µM
C[C@]12CCC(=O)C=C1CC[C@@H]1C2CC[C@]2(C)Nc3c(cnn3-c3ccccc3)CC12 (some centres not stated) | – | – | – | > 100 µM | – | – | – | > 10 µM | – | > 100 µM | – | > 100 µM | – | > 100 µM | – | – | – | – | – | –
O=C(NC(=O)c1cn(CCN(CCO)C(=O)NCCCCCCNC(=O)N(CCO)CCn2cc(C(=O)NC(=O)OCc3ccccc3)c(=O)[nH]c2=O)c(=O)[nH]c1=O)OCc1ccccc1 | – | – | – | – | – | – | – | > 100 µM | – | > 100 µM | – | > 100 µM | – | > 100 µM | – | – | – | – | – | –
CCOC1=C2C(=O)OC(=O)C2C2CCCCC2=C1 (configuration not stated) | – | – | – | > 100 µM | – | – | – | > 100 µM | – | > 100 µM | – | > 100 µM | – | > 100 µM | – | – | – | – | – | > 100 µM
Cc1cc2c(C)nn(Cc3ccccc3)c2c(C(N)=O)c1C | – | – | – | > 100 µM | – | – | – | > 100 µM | – | > 100 µM | – | > 100 µM | – | > 100 µM | – | – | – | – | – | > 100 µM
C=CCNC(=O)N(CCCC(NC(C)=O)C(=O)NCc1ccccc1)Cc1ccccc1 (configuration not stated) | – | – | – | – | – | – | – | > 100 µM | – | > 100 µM | – | > 100 µM | – | > 100 µM | – | – | – | – | – | > 100 µM
COC1/C=C/C(C)C(C(C)C(OC)C(C)CCC(=O)C(C)C(C/C=C/N(C)C=O)OC)OC(=O)/C=C/C=C(\C)CC(OC)CC2=CC(=O)O[C@H](C2)C(C)C(OC)CC(OC)/C=C/C(C)C(OC)C1 (some centres not stated) | 0.123 µM | – | 0.0046 µM | – | 0.102 µM | – | 0.0127 µM | 0.0307 µM | 0.0413 µM | 0.298 µM and 0.0326 µM | 0.0236 µM | – | – | 0.0194 µM | 0.00311 µM | – | 0.071 µM and 0.0601 µM | 0.0297 µM | – | –
c1ccc(C(c2ccccc2)c2cccnc2)cc1 | – | – | – | > 100 µM | – | – | – | > 100 µM | – | > 100 µM | – | > 100 µM | – | > 100 µM | – | – | – | – | – | –
CN1CCN(CCOc2ccc(-c3cnc4c(-c5ccc(C(F)(F)F)cc5)cnn4c3)cc2)CC1 | 1.59 µM | 2.93 µM | 1.67 µM | 3.34 µM | – | – | 1.55 µM | 2.94 µM | 1.68 µM | 3.11 µM | 0.993 µM | 2.38 µM | – | – | – | – | 3.41 µM | 1.62 µM | 1.55 µM | 3.16 µM
C1=CC=C2NCCCCCCCNC3=CC=CC=CC3=NCCCCCCCN=C2C=C1 | – | – | – | > 100 µM | – | – | – | – | – | – | – | > 100 µM | – | > 100 µM | – | > 100 µM | – | – | – | > 100 µM
Cc1cc(C(=C2C=CC(=Nc3ccccc3)C=C2)c2ccc(Nc3ccccc3)cc2)ccc1N | 0.507 µM | 1.58 µM | 0.211 µM | 0.452 µM | 0.643 µM | 2.22 µM | 0.293 µM | 0.876 µM | 0.368 µM | 1.4 µM | 0.164 µM | 0.302 µM | – | – | – | – | – | – | 0.203 µM | 0.602 µM
C#CC1(O)C(COP(=O)(O)OC(COCCCCCCCCCCCCCCCCCC)COP(=O)(O)OCC2OC(n3cc(F)c(=O)[nH]c3=O)CC2O)OC(n2ccc(N)nc2=O)C1O (configuration not stated) | 0.274 µM and 0.0722 µM | > 100 µM | – | > 28.4 µM | – | 8.28 µM and 30.5 µM | – | > 29.1 µM and 23.4 µM | 0.618 µM and 1.49 µM | 21.8 µM and 28.8 µM | – | > 100 µM and 41.5 µM | – | – | – | – | 44.8 µM and 17.2 µM | 2.12 µM and 1.03 µM | < 0.0377 µM and 0.0758 µM | 0.223 µM and 1.52 µM
